Assay results as given in PubChem BioAssay (NCI).
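Compound exposure: 48 hours, 5 concentrations, 96-well plates. Definition used: TGI = concentration required for complete inhibition of growth.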

Experiments:
Assay in all cases: NCI-60 cell line screen, 48 h
CAKI-1 renal = tested on: CAKI-1 renal
MDA-MB-435 = tested on: MDA-MB-435
TK-10 renal = tested on: TK-10 renal
HL-60(TB) leukemia = tested on: HL-60(TB) leukemia
SNB-19 CNS = tested on: SNB-19 CNS
ACHN renal = tested on: ACHN renal
MOLT-4 leukemia = tested on: MOLT-4 leukemia
M14 melanoma = tested on: M14 melanoma
SK-MEL-5 melanoma = tested on: SK-MEL-5 melanoma
786-0 renal = tested on: 786-0 renal
OVCAR-4 ovarian = tested on: OVCAR-4 ovarian
SK-OV-3 ovarian = tested on: SK-OV-3 ovarian
SNB-75 CNS = tested on: SNB-75 CNS
PC-3 prostate = tested on: PC-3 prostate
SK-MEL-2 melanoma = tested on: SK-MEL-2 melanoma
LOX IMVI melanoma = tested on: LOX IMVI melanoma
NCI-H522 lung = tested on: NCI-H522 lung
HOP-62 NSCLC = tested on: HOP-62 NSCLC
SR leukemia = tested on: SR leukemia
BT-549 breast = tested on: BT-549 breast
COLO 205 colon = tested on: COLO 205 colon
K-562 leukemia = tested on: K-562 leukemia
T-47D breast = tested on: T-47D breast
UACC-62 melanoma = tested on: UACC-62 melanoma
OVCAR-3 ovarian = tested on: OVCAR-3 ovarian
MCF7 breast = tested on: MCF7 breast
UACC-257 melanoma = tested on: UACC-257 melanoma
MDA-N = tested on: MDA-N
OVCAR-8 ovarian = tested on: OVCAR-8 ovarian
MDA-MB-231 breast = tested on: MDA-MB-231 breast
RPMI-8226 leukemia = tested on: RPMI-8226 leukemia
OVCAR-5 ovarian = tested on: OVCAR-5 ovarian
NCI-H226 lung = tested on: NCI-H226 lung
NCI/ADR-RES ovarian = tested on: NCI/ADR-RES ovarian
SF-268 CNS = tested on: SF-268 CNS
EKVX NSCLC = tested on: EKVX NSCLC
HCT-116 colon = tested on: HCT-116 colon
U251 CNS = tested on: U251 CNS
HT29 colon = tested on: HT29 colon
NCI-H460 lung = tested on: NCI-H460 lung
SW-620 colon = tested on: SW-620 colon
IGROV1 ovarian = tested on: IGROV1 ovarian
UO-31 renal = tested on: UO-31 renal
SF-539 CNS = tested on: SF-539 CNS
A549 NSCLC = tested on: A549 NSCLC
SN12C renal = tested on: SN12C renal
RXF 393 renal = tested on: RXF 393 renal
HOP-92 NSCLC = tested on: HOP-92 NSCLC
SF-295 CNS = tested on: SF-295 CNS
A498 renal = tested on: A498 renal
DU-145 prostate = tested on: DU-145 prostate
HCT-15 colon = tested on: HCT-15 colon
HCC-2998 colon = tested on: HCC-2998 colon
NCI-H23 lung = tested on: NCI-H23 lung
HS 578T breast = tested on: HS 578T breast
SK-MEL-28 melanoma = tested on: SK-MEL-28 melanoma
KM12 colon = tested on: KM12 colon
CCRF-CEM leukemia = tested on: CCRF-CEM leukemia
MALME-3M melanoma = tested on: MALME-3M melanoma

## OC1(C(O)(c2ccc(-c3ccccc3)cc2)c2ccc(-c3ccccc3)cc2)CCCCC1
CAKI-1 renal
  TGI: > 100 µM
MDA-MB-435
  TGI: > 100 µM
TK-10 renal
  TGI: > 100 µM
HL-60(TB) leukemia
  TGI: > 100 µM
SNB-19 CNS
  TGI: > 100 µM
ACHN renal
  TGI: > 100 µM
MOLT-4 leukemia
  TGI: > 100 µM
M14 melanoma
  TGI: > 100 µM
SK-MEL-5 melanoma
  TGI: > 100 µM
786-0 renal
  TGI: > 100 µM
OVCAR-4 ovarian
  TGI: > 100 µM
SK-OV-3 ovarian
  TGI: > 100 µM
SNB-75 CNS
  TGI: > 100 µM
PC-3 prostate
  TGI: > 100 µM
SK-MEL-2 melanoma
  TGI: > 100 µM
LOX IMVI melanoma
  TGI: > 100 µM
NCI-H522 lung
  TGI: > 100 µM
HOP-62 NSCLC
  TGI: > 100 µM
SR leukemia
  TGI: > 100 µM
BT-549 breast
  TGI: > 100 µM
COLO 205 colon
  TGI: > 100 µM
K-562 leukemia
  TGI: > 100 µM
T-47D breast
  TGI: > 100 µM
UACC-62 melanoma
  TGI: > 100 µM
OVCAR-3 ovarian
  TGI: > 100 µM
MCF7 breast
  TGI: > 100 µM
UACC-257 melanoma
  TGI: > 100 µM
MDA-N
  TGI: > 100 µM
OVCAR-8 ovarian
  TGI: > 100 µM
MDA-MB-231 breast
  TGI: > 100 µM
RPMI-8226 leukemia
  TGI: > 100 µM
OVCAR-5 ovarian
  TGI: > 100 µM
NCI-H226 lung
  TGI: > 100 µM
NCI/ADR-RES ovarian
  TGI: > 100 µM
SF-268 CNS
  TGI: > 100 µM
EKVX NSCLC
  TGI: > 100 µM
HCT-116 colon
  TGI: > 100 µM
U251 CNS
  TGI: > 100 µM
HT29 colon
  TGI: > 100 µM
NCI-H460 lung
  TGI: > 100 µM
SW-620 colon
  TGI: > 100 µM
IGROV1 ovarian
  TGI: > 100 µM
UO-31 renal
  TGI: > 100 µM
SF-539 CNS
  TGI: > 100 µM
A549 NSCLC
  TGI: > 100 µM
SN12C renal
  TGI: > 100 µM
RXF 393 renal
  TGI: > 100 µM
HOP-92 NSCLC
  TGI: > 100 µM
SF-295 CNS
  TGI: > 100 µM
A498 renal
  TGI: > 100 µM
DU-145 prostate
  TGI: > 100 µM
HCT-15 colon
  TGI: > 100 µM
HCC-2998 colon
  TGI: > 100 µM
NCI-H23 lung
  TGI: > 100 µM
HS 578T breast
  TGI: > 100 µM
SK-MEL-28 melanoma
  TGI: > 100 µM
KM12 colon
  TGI: > 100 µM

## CC(=O)NC1C(OCc2ccccc2)OC(CO)C(O)C1OCC(=O)N[C@@H](C)C(=O)N[C@H](CCC(=O)NCCCCNc1c2ccccc2nc2cccc([N+](=O)[O-])c12)C(N)=O (stereo partly drawn)
CAKI-1 renal
  TGI: > 23.2 µM
MDA-MB-435
  TGI: 3.96 µM
TK-10 renal
  TGI: 16.7 µM
HL-60(TB) leukemia
  TGI: > 100 µM
SNB-19 CNS
  TGI: 24 µM
ACHN renal
  TGI: 11.3 µM
MOLT-4 leukemia
  TGI: > 100 µM
CCRF-CEM leukemia
  TGI: > 100 µM
M14 melanoma
  TGI: > 22.2 µM
SK-MEL-5 melanoma
  TGI: 2.58 µM
786-0 renal
  TGI: 10.1 µM
OVCAR-4 ovarian
  TGI: 2.85 µM
SK-OV-3 ovarian
  TGI: > 71.8 µM
SNB-75 CNS
  TGI: 4.69 µM
PC-3 prostate
  TGI: 9.44 µM
SK-MEL-2 melanoma
  TGI: 5 µM
LOX IMVI melanoma
  TGI: 11.5 µM
MALME-3M melanoma
  TGI: 3.68 µM
NCI-H522 lung
  TGI: 0.594 µM
HOP-62 NSCLC
  TGI: > 52.2 µM
SR leukemia
  TGI: > 100 µM
BT-549 breast
  TGI: 13.1 µM
COLO 205 colon
  TGI: 3.33 µM
K-562 leukemia
  TGI: > 100 µM
T-47D breast
  TGI: 9.51 µM
UACC-62 melanoma
  TGI: 3.13 µM
OVCAR-3 ovarian
  TGI: > 30.4 µM
MCF7 breast
  TGI: 32 µM
UACC-257 melanoma
  TGI: 5.36 µM
MDA-N
  TGI: 4.15 µM
OVCAR-8 ovarian
  TGI: 5.03 µM
MDA-MB-231 breast
  TGI: 9.56 µM
RPMI-8226 leukemia
  TGI: 8.88 µM
OVCAR-5 ovarian
  TGI: > 27.5 µM
NCI-H226 lung
  TGI: 7.49 µM
NCI/ADR-RES ovarian
  TGI: > 100 µM
SF-268 CNS
  TGI: 14.5 µM
EKVX NSCLC
  TGI: 8.97 µM
HCT-116 colon
  TGI: 10 µM
U251 CNS
  TGI: 10.9 µM
HT29 colon
  TGI: 7.86 µM
NCI-H460 lung
  TGI: 3.36 µM
SW-620 colon
  TGI: 97 µM
IGROV1 ovarian
  TGI: 4.74 µM
UO-31 renal
  TGI: 6.62 µM
SF-539 CNS
  TGI: 6 µM
A549 NSCLC
  TGI: > 100 µM
SN12C renal
  TGI: 14.5 µM
HOP-92 NSCLC
  TGI: 4.45 µM
SF-295 CNS
  TGI: 37.3 µM
A498 renal
  TGI: 5.9 µM
DU-145 prostate
  TGI: 12.4 µM
HCT-15 colon
  TGI: 14.7 µM
HCC-2998 colon
  TGI: 2.91 µM
NCI-H23 lung
  TGI: 2.54 µM
HS 578T breast
  TGI: > 31.3 µM
SK-MEL-28 melanoma
  TGI: 23.4 µM
KM12 colon
  TGI: 5.32 µM

## Cc1cc2nc3c(N)nn(CCN(C)C)c3nc2cc1C
CAKI-1 renal
  TGI: > 100 µM
MDA-MB-435
  TGI: > 100 µM
TK-10 renal
  TGI: > 100 µM
SNB-19 CNS
  TGI: > 100 µM
ACHN renal
  TGI: 95.5 µM
MOLT-4 leukemia
  TGI: > 100 µM
CCRF-CEM leukemia
  TGI: > 100 µM
M14 melanoma
  TGI: > 100 µM
SK-MEL-5 melanoma
  TGI: > 100 µM
786-0 renal
  TGI: > 100 µM
OVCAR-4 ovarian
  TGI: > 100 µM
SK-OV-3 ovarian
  TGI: > 100 µM
SNB-75 CNS
  TGI: 97.9 µM
PC-3 prostate
  TGI: > 100 µM
SK-MEL-2 melanoma
  TGI: > 100 µM
LOX IMVI melanoma
  TGI: 76.2 µM
MALME-3M melanoma
  TGI: > 100 µM
NCI-H522 lung
  TGI: > 100 µM
HOP-62 NSCLC
  TGI: > 100 µM
SR leukemia
  TGI: > 100 µM
BT-549 breast
  TGI: > 100 µM
COLO 205 colon
  TGI: > 100 µM
K-562 leukemia
  TGI: > 100 µM
T-47D breast
  TGI: > 100 µM
UACC-62 melanoma
  TGI: > 100 µM
OVCAR-3 ovarian
  TGI: > 100 µM
MCF7 breast
  TGI: > 100 µM
UACC-257 melanoma
  TGI: > 100 µM
MDA-N
  TGI: > 100 µM
OVCAR-8 ovarian
  TGI: > 100 µM
MDA-MB-231 breast
  TGI: > 100 µM
RPMI-8226 leukemia
  TGI: > 100 µM
OVCAR-5 ovarian
  TGI: > 100 µM
NCI-H226 lung
  TGI: 79.4 µM
NCI/ADR-RES ovarian
  TGI: > 100 µM
SF-268 CNS
  TGI: > 100 µM
EKVX NSCLC
  TGI: > 100 µM
HCT-116 colon
  TGI: > 100 µM
U251 CNS
  TGI: > 100 µM
HT29 colon
  TGI: > 100 µM
NCI-H460 lung
  TGI: > 100 µM
SW-620 colon
  TGI: > 100 µM
IGROV1 ovarian
  TGI: > 100 µM
UO-31 renal
  TGI: > 100 µM
SF-539 CNS
  TGI: > 100 µM
A549 NSCLC
  TGI: > 100 µM
SN12C renal
  TGI: > 100 µM
RXF 393 renal
  TGI: > 100 µM
HOP-92 NSCLC
  TGI: > 100 µM
SF-295 CNS
  TGI: > 100 µM
A498 renal
  TGI: > 100 µM
DU-145 prostate
  TGI: > 100 µM
HCT-15 colon
  TGI: > 100 µM
HCC-2998 colon
  TGI: > 100 µM
NCI-H23 lung
  TGI: > 100 µM
HS 578T breast
  TGI: > 100 µM
SK-MEL-28 melanoma
  TGI: > 100 µM
KM12 colon
  TGI: > 100 µM
